# In patent US20240034812A1, “BISPECIFIC ANTIBODY AGAINST CD3 AND CD20 IN COMBINATION THERAPY FOR TREATING DIFFUSE LARGE B-CELL LYMPHOMA” (GENMAB A/S, priority 2020, published 2024):
# Read-outs that look alike come from different tables or passages of the source.
# How the values were obtained:
# T cells = experiment: T cell viability after pre-incubation with CHOP components; format: cell-based
# CD20 = target: T1, CD20 (Homo sapiens, UniProt P11836); conditions: bind to a different epitope; cited from earlier work
# T1 sequence (P11836 1-297): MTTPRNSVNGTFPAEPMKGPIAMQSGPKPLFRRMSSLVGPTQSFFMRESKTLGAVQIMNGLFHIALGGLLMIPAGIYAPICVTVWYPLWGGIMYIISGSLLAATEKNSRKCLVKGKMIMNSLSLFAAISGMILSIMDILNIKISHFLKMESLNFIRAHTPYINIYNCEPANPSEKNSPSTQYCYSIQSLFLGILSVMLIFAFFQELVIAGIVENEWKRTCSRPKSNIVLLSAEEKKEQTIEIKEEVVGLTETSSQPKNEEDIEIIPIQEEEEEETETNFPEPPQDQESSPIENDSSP
# [1] = system: relapsed/refractory (R/R) B-NHL; experiment: epcoritamab monotherapy clinical trial (NCT03625037); format: in vivo
# Excerpt: Epcoritamab as monotherapy is currently in a clinical trial for the treatment of relapsed/refractory (R/R) B-NHL (ClinicalTrials.gov Identifier: NCT03625037).
# [2] = system: CD20-expressing Raji-luc tumor cells; conditions: even in the presence of an excess of IgG1-RTX-FEAR; Engelberts et al. 2020; cited from earlier work
# [3] = system: primary DLBCL and follicular lymphoma patient biopsies; conditions: cited from earlier work
# [4] = system: previously untreated, high-risk (IPI or R-IPI≥3) DLBCL; experiment: Phase 1b open-label trial of epcoritamab in combination with R-CHOP; format: in vivo, human; conditions: as of Sep. 8, 2021; CRS under epcoritamab + R-CHOP
# Procedure: Epcoritamab is initially be administered in combination with R-CHOP in a 3-subject cohort. DLTs are evaluated during the first 28 days.
# Cyclophosphamide (750 mg/m^2) is administered intravenously on day 1 once every three weeks (Q3 W) of cycles 1-6 or 1-8. Doxorubicin (50 mg/m^2) is administered intravenously on day 1 once every three weeks (Q3 W) of cycles 1-6 or 1-8. Vincristine (1.4 mg/m^2, with a recommended cap of 2 mg) is administered intravenously on day 1 once every three weeks (Q3 W) of cycles 1-6 or 1-8. Prednisone (100 mg/day) is administered intravenously or orally on five consecutive days (days 1-5) every three weeks (Q3 W) of cycles 1-6 or 1-8.
# MRD negativity rate, is defined as the proportion of subjects with at least 1 undetectable MRD result according to the specific threshold, prior to initiation of subsequent therapy.
# [5] = T cells pre-incubated 16 hours, data not shown
compound,measurement,setting,value
"O=P1(N(CCCl)CCCl)NCCCO1 (centres unmarked) [cyclophosphamide, 2H-1,3,2-Oxazaphosphorin-2-amine, N,N-bis(2-chloroethyl)tetrahydro-, 2-oxide]",T cell viability after pretreatment,T cells,did not impact T cell viability
COc1cccc2c1C(=O)c1c(O)c3c(c(O)c1C2=O)C[C@@](O)(C(=O)CO)C[C@@H]3O[C@H]1C[C@H](N)[C@H](O)[C@H](C)O1 [doxorubicin],T cell viability after pretreatment,T cells; [5],led to a reduction in T cell viability
"C[C@]12C=CC(=O)C=C1CC[C@@H]1[C@@H]2C(=O)C[C@@]2(C)[C@H]1CC[C@]2(O)C(=O)CO [prednisone, 17,21-dihydroxypregna-1,4-diene-3,11,20-trione]",T cell viability after pretreatment,T cells; [5],did not impact T cell viability
CC[C@]1(O)C[C@H]2CN(CCc3c([nH]c4ccccc34)[C@@](C(=O)OC)(c3cc4c(cc3OC)N(C=O)[C@H]3[C@@](O)(C(=O)OC)[C@H](OC(C)=O)[C@]5(CC)C=CCN6CC[C@]43[C@@H]65)C2)C1 [vincristine],T cell viability after pretreatment,T cells; [5],did not impact T cell viability
IgG1-CD20: anti-CD20 antibody of which the CD20 arm of epcoritamab is derived,competition for CD20 binding,CD20,compete for CD20 binding
epcoritamab: IgG1 bispecific CD3xCD20 antibody; heavy and light chain pairs SEQ ID NOs: 24/25 (CD3ε arm) and 26/27 (CD20 arm); CAS 2134641-34-0,tolerated dose,"[1]; human, in vivo",at least 48 mg
same,dose-limiting toxicities,"[1]; monotherapy, R/R B-NHL patients, preliminary data",no dose-limiting toxicities reported
same,tumor growth,[2],effectively reduce tumor growth
same,T-cell-mediated cytotoxicity,"[3]; biopsies taken a certain amount of time after anti-CD20 antibody, Van der Horst et al. 2019",induced T-cell-mediated cytotoxicity
same,tumor cell kill,[3]; biopsy taken 2 weeks after administering anti-CD20 antibody,up to 40%
"tocilizumab: a humanized antibody against IL-6 receptor, commercially available as, e.g., ACTEMRA",outcome of the Grade 3 CRS episode after treatment,[4],recovered
